# Source: patent US20070021385A1, “Compositions and methods for wood preservation” (priority 2005, published 2007)
# Tests used:
# decay fungi = assay: AWPA E7-01 field stake test, decay ratings, Gainesville, Florida; type: in vivo; design: Average Decay Ratings: scale not given here
# Experimental: (§1) Preservative treating solutions were prepared by the mixing the concentrates in Example 1 with ethanol. The treated stakes were installed in Gainesville, Fla. for field performance evaluation following the procedure described in American Wood Preservers' Association (AWPA) Standard E7-01: “Standard Method of Evaluating Wood Preservatives by Field Tests with Stakes”.
# (§2) Preservative treating solutions were prepared by the mixing the concentrates in Example 1 with toluene. The treated stakes were installed in Gainesville, Fla. for field performance evaluation following the procedure described in American Wood Preservers' Association (AWPA) Standard E7-01: “Standard Method of Evaluating Wood Preservatives by Field Tests with Stakes”.
# Preservative treating solutions were prepared by the mixing the concentrates in Example 2 and 13. The treated stakes were installed in Gainesville, Fla. for field performance evaluation following the procedure described in American Wood Preservers' Association (AWPA) Standard E7-01: “Standard Method of Evaluating Wood Preservatives by Field Tests with Stakes”. […]
# (§3) Preservative treating solutions were prepared by the mixing the concentrates in Example 1 with white spirits. The treated stakes were installed in Gainesville, Fla. for field performance evaluation following the procedure described in American Wood Preservers' Association (AWPA) Standard E7-01: “Standard Method of Evaluating Wood Preservatives by Field Tests with Stakes”.
# termites = assay: AWPA E7-01 field stake test, termite ratings, Gainesville, Florida; type: in vivo; design: Average Termite Ratings: scale not given here
# Experimental: as §1, §2
# Preservative treating solutions were prepared by the mixing the concentrates in Example 2 and 13. The treated stakes were installed in Gainesville, Fla. for field performance evaluation following the procedure described in American Wood Preservers' Association (AWPA) Standard E7-01: “Standard Method of Evaluating Wood Preservatives by Field Tests with Stakes”.
# as §3
# brown rots or white rots = assay: Accelerated decay testing in the lab; settings: confirmed by accelerated decay testing in the lab
# Excerpt: Provided herein is an organic composition and method for use thereof in treatment of cellulosic material, more particularly wood. The composition comprises an azole or quaternary ammonium fungicide compound, and a pyrethroid insecticide. The composition imparts to the treated wood resistance to both fungi and insects. […] This has been confirmed by accelerated decay testing in the lab.
smiles,measurement,setting,value
"CC(C)(C)C(O)(CCc1ccc(Cl)cc1)Cn1cncn1 (racemic) [Tebuconazole, (RS)-1-p-chlorophenyl-4,4-dimethyl-3-(1H -1,2,4-triazol-1-ylmethyl)pentan-3-ol]",protection / bio-efficacy against fungal attack (in words),"decay fungi; different retention levels, text summary of Table 1A",certain degree of protection against fungal attack
same,Average Decay Ratings,"decay fungi; retention 0.32 kg/m^3, 12 months, Table 1A, Example 14 ethanol",8.2
same,Average Decay Ratings,"decay fungi; retention 0.32 kg/m^3, 12 months, Table 2A, Example 15 toluene",8.2
same,Average Decay Ratings,"decay fungi; retention 0.32 kg/m^3, 12 months, Table 3A, Example 16 (concentrates of Examples 2 and 13)",8.2
same,Average Decay Ratings,"decay fungi; retention 0.32 kg/m^3, 24 months, Table 1A, Example 14 ethanol",2.6
same,Average Decay Ratings,"decay fungi; retention 0.32 kg/m^3, 24 months, Table 2A, Example 15 toluene",2.6
same,Average Decay Ratings,"decay fungi; retention 0.32 kg/m^3, 24 months, Table 3A, Example 16 (concentrates of Examples 2 and 13)",2.6
same,Average Decay Ratings,"decay fungi; retention 0.32 kg/m^3, 36 months, Table 1A, Example 14 ethanol",0.0
same,Average Decay Ratings,"decay fungi; retention 0.32 kg/m^3, 36 months, Table 2A, Example 15 toluene",0.0
same,Average Decay Ratings,"decay fungi; retention 0.32 kg/m^3, 36 months, Table 3A, Example 16 (concentrates of Examples 2 and 13)",0.0
same,Average Decay Ratings,"decay fungi; retention 0.32 kg/m^3, 48 months, Table 1A, Example 14 ethanol",0.0
same,Average Decay Ratings,"decay fungi; retention 0.32 kg/m^3, 48 months, Table 2A, Example 15 toluene",0.0
same,Average Decay Ratings,"decay fungi; retention 0.32 kg/m^3, 48 months, Table 3A, Example 16 (concentrates of Examples 2 and 13)",0.0
same,Average Decay Ratings,"decay fungi; retention 0.48 kg/m^3, 12 months, Table 1A, Example 14 ethanol",5.8
same,Average Decay Ratings,"decay fungi; retention 0.48 kg/m^3, 12 months, Table 2A, Example 15 toluene",5.8
same,Average Decay Ratings,"decay fungi; retention 0.48 kg/m^3, 12 months, Table 3A, Example 16 (concentrates of Examples 2 and 13)",5.8
same,Average Decay Ratings,"decay fungi; retention 0.48 kg/m^3, 24 months, Table 1A, Example 14 ethanol",0.8
same,Average Decay Ratings,"decay fungi; retention 0.48 kg/m^3, 24 months, Table 2A, Example 15 toluene",0.8
same,Average Decay Ratings,"decay fungi; retention 0.48 kg/m^3, 24 months, Table 3A, Example 16 (concentrates of Examples 2 and 13)",0.8
same,Average Decay Ratings,"decay fungi; retention 0.48 kg/m^3, 36 months, Table 1A, Example 14 ethanol",0.0
same,Average Decay Ratings,"decay fungi; retention 0.48 kg/m^3, 36 months, Table 2A, Example 15 toluene",0.0
same,Average Decay Ratings,"decay fungi; retention 0.48 kg/m^3, 36 months, Table 3A, Example 16 (concentrates of Examples 2 and 13)",0.0
same,Average Decay Ratings,"decay fungi; retention 0.48 kg/m^3, 48 months, Table 1A, Example 14 ethanol",0.0
same,Average Decay Ratings,"decay fungi; retention 0.48 kg/m^3, 48 months, Table 2A, Example 15 toluene",0.0
same,Average Decay Ratings,"decay fungi; retention 0.48 kg/m^3, 48 months, Table 3A, Example 16 (concentrates of Examples 2 and 13)",0.0
same,Average Decay Ratings,"decay fungi; retention 0.64 kg/m^3, 12 months, Table 1A, Example 14 ethanol",8.7
same,Average Decay Ratings,"decay fungi; retention 0.64 kg/m^3, 12 months, Table 2A, Example 15 toluene",8.7
same,Average Decay Ratings,"decay fungi; retention 0.64 kg/m^3, 12 months, Table 3A, Example 16 (concentrates of Examples 2 and 13)",8.7
same,Average Decay Ratings,"decay fungi; retention 0.64 kg/m^3, 24 months, Table 1A, Example 14 ethanol",1.2
same,Average Decay Ratings,"decay fungi; retention 0.64 kg/m^3, 24 months, Table 2A, Example 15 toluene",1.2
same,Average Decay Ratings,"decay fungi; retention 0.64 kg/m^3, 24 months, Table 3A, Example 16 (concentrates of Examples 2 and 13)",1.2
same,Average Decay Ratings,"decay fungi; retention 0.64 kg/m^3, 36 months, Table 1A, Example 14 ethanol",0.0
same,Average Decay Ratings,"decay fungi; retention 0.64 kg/m^3, 36 months, Table 2A, Example 15 toluene",0.0
same,Average Decay Ratings,"decay fungi; retention 0.64 kg/m^3, 36 months, Table 3A, Example 16 (concentrates of Examples 2 and 13)",0.0
same,Average Decay Ratings,"decay fungi; retention 0.64 kg/m^3, 48 months, Table 1A, Example 14 ethanol",0.0
same,Average Decay Ratings,"decay fungi; retention 0.64 kg/m^3, 48 months, Table 2A, Example 15 toluene",0.0
same,Average Decay Ratings,"decay fungi; retention 0.64 kg/m^3, 48 months, Table 3A, Example 16 (concentrates of Examples 2 and 13)",0.0
same,insect / termite attack on treated wood (in words),"termites; different retention levels, text summary of Table 1B",severe insect attack
same,Average Termite Ratings,"termites; retention 0.32 kg/m^3, 12 months, Table 1B, Example 14 ethanol",4.2
same,Average Termite Ratings,"termites; retention 0.32 kg/m^3, 12 months, Table 2B, Example 15 toluene",4.2
same,Average Termite Ratings,"termites; retention 0.32 kg/m^3, 12 months, Table 3B, Example 16 (concentrates of Examples 2 and 13)",4.2
same,Average Termite Ratings,"termites; retention 0.32 kg/m^3, 24 months, Table 1B, Example 14 ethanol",0.6
same,Average Termite Ratings,"termites; retention 0.32 kg/m^3, 24 months, Table 2B, Example 15 toluene",0.6
same,Average Termite Ratings,"termites; retention 0.32 kg/m^3, 24 months, Table 3B, Example 16 (concentrates of Examples 2 and 13)",0.6
same,Average Termite Ratings,"termites; retention 0.32 kg/m^3, 36 months, Table 1B, Example 14 ethanol",0.0
same,Average Termite Ratings,"termites; retention 0.32 kg/m^3, 36 months, Table 2B, Example 15 toluene",0.0
same,Average Termite Ratings,"termites; retention 0.32 kg/m^3, 36 months, Table 3B, Example 16 (concentrates of Examples 2 and 13)",0.0
same,Average Termite Ratings,"termites; retention 0.32 kg/m^3, 48 months, Table 1B, Example 14 ethanol",0.0
same,Average Termite Ratings,"termites; retention 0.32 kg/m^3, 48 months, Table 2B, Example 15 toluene",0.0
same,Average Termite Ratings,"termites; retention 0.32 kg/m^3, 48 months, Table 3B, Example 16 (concentrates of Examples 2 and 13)",0.0
same,Average Termite Ratings,"termites; retention 0.48 kg/m^3, 12 months, Table 1B, Example 14 ethanol",4.5
same,Average Termite Ratings,"termites; retention 0.48 kg/m^3, 12 months, Table 2B, Example 15 toluene",4.5
same,Average Termite Ratings,"termites; retention 0.48 kg/m^3, 12 months, Table 3B, Example 16 (concentrates of Examples 2 and 13)",4.5
same,Average Termite Ratings,"termites; retention 0.48 kg/m^3, 24 months, Table 1B, Example 14 ethanol",1.2
same,Average Termite Ratings,"termites; retention 0.48 kg/m^3, 24 months, Table 2B, Example 15 toluene",1.2
same,Average Termite Ratings,"termites; retention 0.48 kg/m^3, 24 months, Table 3B, Example 16 (concentrates of Examples 2 and 13)",1.2
same,Average Termite Ratings,"termites; retention 0.48 kg/m^3, 36 months, Table 1B, Example 14 ethanol",0.0
same,Average Termite Ratings,"termites; retention 0.48 kg/m^3, 36 months, Table 2B, Example 15 toluene",0.0
same,Average Termite Ratings,"termites; retention 0.48 kg/m^3, 36 months, Table 3B, Example 16 (concentrates of Examples 2 and 13)",0.0
same,Average Termite Ratings,"termites; retention 0.48 kg/m^3, 48 months, Table 1B, Example 14 ethanol",0.0
same,Average Termite Ratings,"termites; retention 0.48 kg/m^3, 48 months, Table 2B, Example 15 toluene",0.0
same,Average Termite Ratings,"termites; retention 0.48 kg/m^3, 48 months, Table 3B, Example 16 (concentrates of Examples 2 and 13)",0.0
same,Average Termite Ratings,"termites; retention 0.64 kg/m^3, 12 months, Table 1B, Example 14 ethanol",4.8
same,Average Termite Ratings,"termites; retention 0.64 kg/m^3, 12 months, Table 2B, Example 15 toluene",4.8
same,Average Termite Ratings,"termites; retention 0.64 kg/m^3, 12 months, Table 3B, Example 16 (concentrates of Examples 2 and 13)",4.8
same,Average Termite Ratings,"termites; retention 0.64 kg/m^3, 24 months, Table 1B, Example 14 ethanol",2.0
same,Average Termite Ratings,"termites; retention 0.64 kg/m^3, 24 months, Table 2B, Example 15 toluene",2.0
same,Average Termite Ratings,"termites; retention 0.64 kg/m^3, 24 months, Table 3B, Example 16 (concentrates of Examples 2 and 13)",2.0
same,Average Termite Ratings,"termites; retention 0.64 kg/m^3, 36 months, Table 1B, Example 14 ethanol",0.0
same,Average Termite Ratings,"termites; retention 0.64 kg/m^3, 36 months, Table 2B, Example 15 toluene",0.0
same,Average Termite Ratings,"termites; retention 0.64 kg/m^3, 36 months, Table 3B, Example 16 (concentrates of Examples 2 and 13)",0.0
same,Average Termite Ratings,"termites; retention 0.64 kg/m^3, 48 months, Table 1B, Example 14 ethanol",0.0
same,Average Termite Ratings,"termites; retention 0.64 kg/m^3, 48 months, Table 2B, Example 15 toluene",0.0
same,Average Termite Ratings,"termites; retention 0.64 kg/m^3, 48 months, Table 3B, Example 16 (concentrates of Examples 2 and 13)",0.0
Cc1c(COC(=O)[C@@H]2[C@H](/C=C(\Cl)C(F)(F)F)C2(C)C)cccc1-c1ccccc1 (racemic) [bifenthrin],fungicidal activity against brown rots or white rots,brown rots or white rots,do not have fungicidal activity
CC1(C)C(C=C(Cl)Cl)C1C(=O)OC(C#N)c1cccc(Oc2ccccc2)c1 (centres unmarked) [cypermethrin],fungicidal activity against brown rots or white rots,brown rots or white rots,do not have fungicidal activity
CC1(C)C(C=C(Cl)Cl)C1C(=O)OCc1cccc(Oc2ccccc2)c1 (centres unmarked) [permethrin],fungicidal activity against brown rots or white rots,brown rots or white rots,do not have fungicidal activity
